# According to patent US4570005A, “Process for the preparation of 2-arylpropyl ether or thioether derivatives” (priority 1980, dated 1986):
# Read-outs that look alike come from different tables or passages of the source.
# Columns and labels:
# [1] = Test 9: Toxicity Test (acute oral toxicity, mice); conditions: mouse, in vivo, po
# Protocol: A predetermined amount of a solution or suspension of a test compound in corn oil was orally administered to male mice having a body weight of 19 to 23 g (0.2 ml per 10 g of the body weight). After 7 days, the number of killed mice was counted and the influences on the mice were examined.
# [2] = test system: sensitive green rice leafhopper (collected at Chigasaki); test: whole plant or invertebrate; format: in vivo; conditions: Nephotettix cincticeps, sensitive female adults, 24 hours, read-out: Mortality (%), Green Rice Leafhopper Collected at Chigasaki
# Protocol: (§1) To a mixture of 20 parts of the compound of the present invention and 20 parts of Sorpol SM-200 (registered tradename for the product supplied by Toho Chemical Industrial Co., Ltd.) was added 60 parts of xylol, and the mixture was suffciently blended. The obtained emulsifiable concentrate was diluted at a predetermined concentration with distilled water, and the obtained dilution was used.
# (§2) Seedlings (having 2 to 3 leaves) of paddy rice were hydroponically cultured in a pot having a diameter of 5 cm. A chemical dilution having a concentration of 100 or 20 ppm, prepared in the same manner as described in Test 1, was applied with a sprayer at a rate of 3 ml per pot. The treated seedlings were air-dried and covered with a metal net cylinder, and female adults of resistant green rice leafhopper (collected at Nakagawara) and sensitive green rice leafhopper (collected at Chigasaki) were set, respectively, free in the pot at a density of 10 adults per pot. After 24 hours, the numbers of killed and living adults were counted and the mortality was calculated. The test was made on three pots and the average value was calculated.
# [3] = test system: resistant green rice leafhopper (collected at Nakagawara); test: Test 3: Effect on Resistant Green Rice Leafhopper (collected at Nakagawara); format: in vivo, Nephotettix cincticeps Uhler (Green rice leafhopper); conditions: Nephotettix cincticeps, 24 h, read-out: Mortality (%), Green Rice Leafhopper Collected at Nakagawara
# Protocol: as §1, §2
# tobacco cutworm [4] = test: Test 1: Effect on Tobacco Cutworm (leaf immersion), mortality after 24 hours; format: in vivo; conditions: second-instar larvae, 25° C
# Protocol: as §1
# An emulsifiable concentrate of a test compound prepared according to the method described in Formulation Example 1 was diluted to a concentration of 100 or 20 ppm. Sweet-potato leaves were immersed in the dilution for 10 seconds, air-dried and placed in a plastic cup having a diameter of 10 cm. Then second-instar larvae of tobacco cutworm were set free in the cup. The cup was allowed to stand still in a thermostat chamber maintained at 25° C. After 24 hours, the numbers of killed and living larvae were counted and the mortality was calculated. The obtained result was expressed by an average value obtained from the mortality calculated in three test cups.
# diamond back moth = test: Test 4: Effect on Diamond Back Moth; format: in vivo; conditions: Plutella
# Protocol: as §1
# Cabbage leaves were spread in a plastic cup, and 10 third-instar larvae of diamond back moth were set free in the cup.
# A chemical dilution having a concentration of 100 or 20 ppm, prepared in the same manner as described in Test 1, was applied from an applicator at a rate of 3 ml per cup.
# After scattering of the chemical dilution, the cup was covered, and after 24 hours, the numbers of killed and living larvae were counted and the mortality was calculated. The test was made on three cups and the average value was calculated.
# tobacco cutworm [5] = test: Test 2: Tobacco Cutworm Larva Dipping Test, mortality after 24 hours; format: in vivo
# Protocol: as §1
# A dilution having a chemical concentration of 100 or 20 ppm was prepared in the same manner as described in Test 1.
# Second-instar and fifth-instar larvae of tobacco cutworm were dipped in the dilution for 5 seconds, and the excessive dilution was removed by a filter paper. Then, the larvae were set free in a plastic cup and an artificial diet was supplied thereto. The cup was allowed to stand still in a thermostat chamber maintained at 25° C. After 24 hours, the numbers of the killed and living larvae were counted and the mortality was calculated. The test was made on three cups and the result was expressed by an average value.
# [6] = 20 ppm, third-instar larvae, 24 hours, read-out: Mortality (%)
# [7] = 100 ppm, third-instar larvae, 24 hours, read-out: Mortality (%)
# [8] = 24 h, read-out: Motality (%), Fifth-Instar Larvae
smiles,measurement,setting,value
"CCOC(=O)c1ccc(C(C)(C)COCc2cccc(Oc3ccccc3)c2)cc1 [Compound 85, 3-Phenoxybenzyl 2-(4-ethoxycarbonylphenyl)-2-methylpropyl ether]",LD50 at 168 h,[1],> 500 mg/kg
same,mortality at 20 ppm,[2],100%
same,mortality at 100 ppm,[2],100%
same,mortality at 20 ppm,[3],100%
same,mortality at 100 ppm,[3],100%
same,mortality at 20 ppm,tobacco cutworm [4],80%
same,mortality at 100 ppm,tobacco cutworm [4],100%
"CCOc1ccc(Oc2cccc(COCC(C)(C)c3ccc(Cl)cc3)c2)cc1 [Compound 94, 3-(4-Ethoxyphenoxy)benzyl 2-(4-chlorophenyl)-2-methylpropyl ether]",LD50 at 168 h,[1],> 500 mg/kg
same,mortality at 20 ppm,[2],100%
same,mortality at 100 ppm,[2],100%
same,mortality at 20 ppm,diamond back moth; [6],80%
same,mortality at 100 ppm,diamond back moth; [7],100%
same,mortality at 20 ppm,[3],100%
same,mortality at 100 ppm,[3],100%
same,mortality at 20 ppm,tobacco cutworm [4],100%
same,mortality at 100 ppm,tobacco cutworm [4],100%
"CC(C)(COCc1cccc(Oc2ccccc2)c1)c1ccc(OC(Cl)=C(Cl)Cl)cc1 [Compound 92, 3-Phenoxybenzyl 2-[(1,2,2-trichlorovinyloxy)phenyl]-2-methylpropyl ether]",LD50 at 168 h,[1],> 500 mg/kg
same,mortality at 20 ppm,tobacco cutworm [4],90%
same,mortality at 100 ppm,tobacco cutworm [4],100%
"CCOc1c(C)cc(C(C)(C)COCc2cccc(Oc3ccccc3)c2)cc1C [Compound 97, 3-Phenoxybenzyl 2-(4-ethoxy-3,5-dimethylphenyl)-2-methylpropyl ether]",LD50 at 168 h,[1],> 500 mg/kg
same,mortality at 20 ppm,[2],100%
same,mortality at 100 ppm,[2],100%
same,mortality at 20 ppm,[3],100%
same,mortality at 100 ppm,[3],100%
same,mortality at 20 ppm,tobacco cutworm [4],100%
same,mortality at 100 ppm,tobacco cutworm [4],100%
"CC(C)(COCc1cccc(Oc2ccccc2)c1)c1ccc(Oc2ccccc2)cc1 [Compound 76, 3-Phenoxybenzyl 2-(4-phenoxyphenyl)-2-methylpropyl ether]",LD50 at 168 h,[1],> 500 mg/kg
same,mortality at 20 ppm,tobacco cutworm [4],90%
same,mortality at 100 ppm,tobacco cutworm [4],100%
"CNC(=O)ON=C(C)SC [Comparative Compound (f), S-methyl N-(methylcarbamoyloxy)thioacetoamidate, reference compound]",LD50 at 168 h,[1],28 mg/kg
same,mortality at 20 ppm,diamond back moth; 24 h,0%
same,mortality at 100 ppm,diamond back moth; 24 h,10%
same,mortality at 20 ppm,tobacco cutworm [5]; [8],0%
same,mortality at 100 ppm,tobacco cutworm [5]; [8],80%
same,mortality at 20 ppm,"tobacco cutworm [5]; 24 h, read-out: Motality (%), Second-Instar Larvae",30%
"CC(=O)c1ccc(C(C)(C)COCc2cccc(Oc3ccccc3)c2)cc1 [Compound 60, 3-Phenoxybenzyl 2-(4-acetylphenyl)-2-methylpropyl ether]",LD50 at 168 h,[1],> 500 mg/kg
same,mortality at 20 ppm,[2],60%
same,mortality at 100 ppm,[2],100%
same,mortality at 20 ppm,[3],90%
same,mortality at 100 ppm,[3],100%
same,mortality at 20 ppm,tobacco cutworm [4],80%
same,mortality at 100 ppm,tobacco cutworm [4],100%
"CC(C)(COCc1cccc(Oc2ccccc2)c1)c1ccc(OCCCl)cc1 [Compound 108, 3-Phenoxybenzyl 2-[4-(2-chloroethoxy)phenyl]-2-methylpropyl ether]",LD50 at 168 h,[1],> 500 mg/kg
same,mortality at 20 ppm,[2],95%
same,mortality at 100 ppm,[2],100%
same,mortality at 20 ppm,[3],100%
same,mortality at 100 ppm,[3],100%
same,mortality at 20 ppm,tobacco cutworm [4],100%
same,mortality at 100 ppm,tobacco cutworm [4],100%
"COCOc1ccc(C(C)(C)COCc2cccc(Oc3ccccc3)c2)cc1 [Compound 83, 3-Phenoxybenzyl 2-(4-methoxymethoxyphenyl)-2-methylpropyl ether]",LD50 at 168 h,[1],> 500 mg/kg
same,mortality at 20 ppm,tobacco cutworm [4],100%
same,mortality at 100 ppm,tobacco cutworm [4],100%
"CCOc1ccc(Oc2cccc(COCC(C)(C)c3ccc(OCC)cc3)c2)cc1 [Compound 101, 3-(4-Ethoxyphenoxy)benzyl 2-(4-ethoxyphenyl)-2-methylpropyl ether]",LD50 at 168 h,[1],> 500 mg/kg
same,mortality at 20 ppm,[2],100%
same,mortality at 100 ppm,[2],100%
same,mortality at 20 ppm,diamond back moth; [6],100%
same,mortality at 100 ppm,diamond back moth; [7],100%
same,mortality at 20 ppm,"tobacco cutworm [5]; 20 ppm, fifth-instar larvae, 24 hours, read-out: Motality (%), Fifth-Instar Larvae",100%
same,mortality at 20 ppm,"tobacco cutworm [5]; 20 ppm, second-instar larvae, 24 hours, read-out: Motality (%), Second-Instar Larvae",100%
same,mortality at 100 ppm,"tobacco cutworm [5]; 100 ppm, fifth-instar larvae, 24 hours, read-out: Motality (%), Fifth-Instar Larvae",100%
same,mortality at 100 ppm,"tobacco cutworm [5]; 100 ppm, second-instar larvae, 24 hours, read-out: Motality (%), Second-Instar Larvae",100%
same,mortality at 20 ppm,[3],100%
same,mortality at 100 ppm,[3],100%
same,mortality at 20 ppm,tobacco cutworm [4],100%
same,mortality at 100 ppm,tobacco cutworm [4],100%
"CCOC(C)c1ccc(C(C)(C)COCc2cccc(Oc3ccccc3)c2)cc1 (centres unmarked) [Compound 84, 3-Phenoxybenzyl 2-[4-(1-ethoxyethyl)phenyl]-2-methylpropyl ether]",LD50 at 168 h,[1],> 500 mg/kg
same,mortality at 20 ppm,diamond back moth; [6],60%
same,mortality at 100 ppm,diamond back moth; [7],100%
"CCC(C)Oc1ccc(C(C)(C)COCc2cccc(Oc3ccccc3)c2)cc1 (centres unmarked) [Compound 70, 3-Phenoxybenzyl 2-[4-(sec-butoxy)phenyl]-2-methylpropyl ether]",LD50 at 168 h,[1],> 500 mg/kg
same,mortality at 20 ppm,[2],100%
same,mortality at 100 ppm,[2],100%
same,mortality at 20 ppm,[3],100%
same,mortality at 100 ppm,[3],100%
same,mortality at 20 ppm,tobacco cutworm [4],90%
same,mortality at 100 ppm,tobacco cutworm [4],100%
"CC(C)(COCc1cccc(Oc2ccc(F)cc2)c1)c1ccc(F)c(Cl)c1 [Compound 58, 3-(4-Fluorophenoxy)benzyl 2-(3-chloro-4-fluorophenyl)-2-methylpropyl ether]",LD50 at 168 h,[1],> 500 mg/kg
same,mortality at 20 ppm,[2],100%
same,mortality at 100 ppm,[2],100%
same,mortality at 20 ppm,[3],100%
same,mortality at 100 ppm,[3],100%
same,mortality at 20 ppm,tobacco cutworm [4],100%
same,mortality at 100 ppm,tobacco cutworm [4],100%
"CCOCOc1ccc(C(C)(C)COCc2cccc(Oc3ccccc3)c2)cc1 [Compound 81, 3-Phenoxybenzyl 2-(4-ethoxymethoxyphenyl)-2-methylpropyl ether]",LD50 at 168 h,[1],> 500 mg/kg
same,mortality at 20 ppm,tobacco cutworm [4],90%
same,mortality at 100 ppm,tobacco cutworm [4],100%
CC(C)(COCc1cccc(Oc2ccccc2)c1)c1ccc(F)c(Cl)c1 [Compound 75],LD50 at 168 h,[1],> 500 mg/kg
same,mortality at 20 ppm,tobacco cutworm [4],80%
same,mortality at 100 ppm,tobacco cutworm [4],100%
"CCOc1ccc(C(C)(C)COCc2cccc(Oc3ccccc3)c2)cc1OC [Compound 99, 3-Phenoxybenzyl-2-(4-ethoxy-3-methoxyphenyl)-2-methylpropyl ether]",LD50 at 168 h,[1],> 500 mg/kg
same,mortality at 20 ppm,diamond back moth; [6],80%
same,mortality at 100 ppm,diamond back moth; [7],100%
same,mortality at 20 ppm,tobacco cutworm [4],100%
same,mortality at 100 ppm,tobacco cutworm [4],100%
"CC(C)(COCc1cccc(Oc2ccccc2)c1)c1ccc(C#N)cc1 [Compound 54, 3-Phenoxybenzyl 2-(4-cyanophenyl)-2-methylpropyl ether]",LD50 at 168 h,[1],> 500 mg/kg
same,mortality at 20 ppm,tobacco cutworm [4],100%
same,mortality at 100 ppm,tobacco cutworm [4],100%
"Cc1ccc2cc(C(C)(C)COCc3cccc(Oc4ccccc4)c3)ccc2c1 [Compound 71, 3-Phenoxybenzyl 2-(6-methyl-2-naphthyl)-2-methylpropyl ether]",LD50 at 168 h,[1],> 500 mg/kg
same,mortality at 20 ppm,[2],100%
same,mortality at 100 ppm,[2],100%
same,mortality at 20 ppm,diamond back moth; [6],60%
same,mortality at 100 ppm,diamond back moth; [7],100%
same,mortality at 20 ppm,[3],100%
same,mortality at 100 ppm,[3],100%
"CCOc1ccc(C(C)(C)COCc2cccc(Oc3ccc(Br)cc3)c2)cc1 [Compound 66, 3-(4-Bromophenoxy)benzyl 2-(4-ethoxyphenyl)-2-methylpropyl ether]",LD50 at 168 h,[1],> 500 mg/kg
same,mortality at 20 ppm,[2],100%
same,mortality at 100 ppm,[2],100%
same,mortality at 20 ppm,diamond back moth; [6],60%
same,mortality at 100 ppm,diamond back moth; [7],100%
same,mortality at 20 ppm,[3],100%
same,mortality at 100 ppm,[3],100%
same,mortality at 20 ppm,tobacco cutworm [4],100%
same,mortality at 100 ppm,tobacco cutworm [4],100%
"CCSc1ccc(C(C)(C)COCc2cccc(Oc3ccccc3)c2)cc1 [Compound 100, 3-Phenoxybenzyl 2-(4-ethylthiophenyl)-2-methylpropyl ether]",LD50 at 168 h,[1],> 500 mg/kg
same,mortality at 20 ppm,[2],80%
same,mortality at 100 ppm,[2],100%
same,mortality at 20 ppm,[3],95%
same,mortality at 100 ppm,[3],100%
same,mortality at 20 ppm,tobacco cutworm [4],80%
same,mortality at 100 ppm,tobacco cutworm [4],100%
